Source: PMC9549809, “In vivo behavior of [^64Cu]NOTA-terpyridine platinum, a novel chemo-radio-theranostic agent for imaging, and therapy of colorectal cancer” (Frontiers in Medicine, 2022)
Read-outs that look alike come from different tables or passages of the source.

How the values were obtained:
[1] = test system: tumor; design: method as in PMID 24337603; details: cited from earlier work
[2] = test system: HCT116 cells; design: method as in PMID 34578470; details: cited from earlier work
[3] = test system: HCT116 tumor; assay: Oxaliplatin in the same HCT116 mouse model (previous study); type: in vivo, nude mice
[4] = test system: plasma protein; details: 24 h; cited from earlier work
[5] = test system: HCT116 tumor; details: cited from earlier work

Structure (SMILES) | tumor uptake ([1]; 15 min post-injection) [%ID/g] | tumor uptake ([1]; 2 h post-injection) [%ID/g] | tumor uptake ([1]; 16 h) [%ID/g] | nuclear accumulation relative to ^64Cu-NOTA-C3-TP [2] | times more platinum drug in the tumor than with [^64Cu]NOTA-C3-TP ([3]; 48 h) [times] | plasma concentration, times higher than [^64Cu]NOTA-C3-TP ([3]; 48 h post-injection, injected dose 1,250 times higher) | bound to plasma protein [4] [%] | quantity measured in the tumor ([5]; 10 mg/kg (25 nmol/g mouse), 48 h post-injection) [nmol/g] | quantity in tumor as % of the injected dose ([5]; 10 mg/kg, 48 h post-injection) [%] | concentration in the tumor ([5]; 48 h post-injection) | EF, oxaliplatin plus 15 Gy external beam vs oxaliplatin alone (TGD) ([5]; same mouse model, irradiated 48 h post-injection)
CC(=O)[O-].CC(=O)[O-].[64Cu+2] [^64Cu(OAc)2] | 1.28 ± 0.13 | 2.76 ± 0.63 | 1.28 ± 0.07 | significantly lower |  |  |  |  |  |  | 
O=C1[O][Pt]2([NH][C@@H]3CCCC[C@H]3[NH]2)[O]C1=O [oxaliplatin] |  |  |  |  | 333 | about 6 times | 98 | 0.3 | 1.2 | 0.12 μg/g of tumor | 5.18
